Measured values from publication PMC5218472 (PLoS Biology, 2017).
Each block holds one compound with its values, some of them ahead of it. Residues, ends and D or L forms follow the SMILES beside them. *: point of attachment. X1 = CC(=O)N[C@@H]1[C@@H](O)[C@H](O[C@@H]2O[C@H](CO)[C@@H](O[C@@H]3O[C@H](CO[C@H]4O[C@H](CO)[C@@H](O)[C@H](O)[C@@H]4O[C@@H]4O[C@H](CO)[C@@H](O[C@@H]5O[C@H](CO)[C@H](O)[C@H](O)[C@H]5O)[C@H](O)[C@H]4NC(C)=O)[C@@H](O)[C@H](O[C@H]4O[C@H](CO)[C@@H](O)[C@H](O)[C@@H]4O[C@@H]4O[C@H](CO)[C@@H](O[C@@H]5O[C@H](CO)[C@H](O)[C@H](O)[C@H]5O)[C@H](O)[C@H]4NC(C)=O)[C@@H]3O)[C@H](O)[C@H]2NC(C)=O)[C@@H](CO)O[C@H]1N*; αGalNAc = CC(=O)N[C@@H]1[C@@H](O)[C@@H](O)[C@@H](CO)O[C@@H]1*

What was measured:
[1] = In vitro cleavage assay of IL-6R (glyco)peptides with recombinant ADAM17; details: human, isolated enzyme; 50 μM peptide, 25 mM Hepes pH 9.0, recombinant catalytic domain of ADAM17, 16 h, 37°C, reverse phase C18 chromatography, peak areas; mean of 3 independent experiments; read-out: intact peptide after incubation with ADAM17 (untreated peptide = 100), mean
Protocol: (§1) Fig 7 The N- and O-glycosylated sequon adjacent to the cleavage site is of minor importance for IL-6R cleavage. (A) Amino-acid sequence of the two unglycosylated peptides 1(QD) and 2(QA). Peptides were incubated either with or without recombinant ADAM17 for 16 h at 37°C, and the amount of cleaved peptide was analyzed by reversed-phase (RP) chromatography. (B) Amino-acid sequence of the two glycopeptides 3(QD) and 4(QA), which have a GlcNAc attached to the amino-acid residue corresponding to Asn-350 of the IL-6R. Cleavage was determined as described in panel (A). (C) Amino-acid sequence of the two glycopeptides 5(QD) and 6(QA), which have a biantennary N-glycan attached to the amino-acid residue corresponding to Asn-350 of the IL-6R. Cleavage was determined as described in panel (A). (D) Amino-acid sequence of the two glycopeptides 7(QD) and 8(QA), which have a GalNAc attached to the amino-acid residue corresponding toThr-352 of the IL-6R. Cleavage was determined as described in panel (A). (E) Amino-acid sequence of the two glycopeptides 9(QD) and 10(QA), which have a biantennary N-glycan attached to the amino-acid residue corresponding to Asn-350 and a GalNAc attached to the amino-acid residue corresponding toThr-352 of the IL-6R. Cleavage was determined as described in panel (A). All data shown are the mean ± SD from three independent experiments (*p < 0.05, **p < 0.01, ***p < 0.001, compared to the untreated peptide; ^§p < 0.05, compared to the cleaved nonglycosylated peptide).
(§2) Two 1.5 ml reaction tubes were filled with 50 μl peptide (50 μM) solved in 25 mM Hepes (pH 9.0), and 0.5 μl of the recombinant catalytic domain of ADAM17 was added to one of the reaction tubes, whereas the other sample remained untreated. All samples were incubated for 16 h at 37°C. Afterwards, 1,150 μl 0.1% TFA was added to each sample, and the peptides were separated on a reverse phase chromatography column (Multo High Bio-200-C18) from Chromatographie Service (Langerwehe, Germany) using a linear gradient elution with a binary solvent system and a flow rate of 1 ml/min. Solvent A consisted of 0.1% TFA, and solvent B consisted of 100% ACN. After peak integration, peak areas for cleaved and noncleaved peptides were determined.

[2] = target: T1, recombinant catalytic domain of ADAM17 (Homo sapiens, UniProt P78536); test: as above; details: 50 μM peptide, 25 mM Hepes pH 9.0, 16 h, 37°C, RP chromatography
T1 construct: catalytic domain (aa Pro-18 to Val-477) of ADAM17; purchased Enzo Life Sciences GmbH (Lörrach, Germany)
T1 sequence (P78536 18-477): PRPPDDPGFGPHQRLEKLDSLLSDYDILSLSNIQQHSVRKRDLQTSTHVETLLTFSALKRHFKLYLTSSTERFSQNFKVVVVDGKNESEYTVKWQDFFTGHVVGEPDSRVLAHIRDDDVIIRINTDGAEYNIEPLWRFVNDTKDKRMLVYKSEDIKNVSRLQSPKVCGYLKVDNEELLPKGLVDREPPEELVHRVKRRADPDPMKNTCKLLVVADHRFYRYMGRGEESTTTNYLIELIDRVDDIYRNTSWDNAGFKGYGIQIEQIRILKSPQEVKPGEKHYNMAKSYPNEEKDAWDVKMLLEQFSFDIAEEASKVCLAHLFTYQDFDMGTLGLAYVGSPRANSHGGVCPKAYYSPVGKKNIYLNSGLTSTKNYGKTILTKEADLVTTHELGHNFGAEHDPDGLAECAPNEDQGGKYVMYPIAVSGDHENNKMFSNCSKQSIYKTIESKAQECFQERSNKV
Protocol: as §1, §2

[3] = tested on: recombinant catalytic domain of ADAM17; test: recombinant catalytic domain of ADAM17 in 25 mM Hepes (pH 9.0); details: 37°C, up to 16 h
[4] = tested on: Ba/F3-gp130-IL-6R_DG cells; test: Proliferation in response to IL-6 or Hyper-IL-6 (S4H Fig); format: cell-based; details: highest value = 100, mean of n = 3
Protocol: (§3) Proliferation of the different Ba/F3-gp130-IL-6R cell lines in response to IL-6 and Hyper-IL-6 and of Ba/F3-gp130 cells in response to IL-6 and the two different recombinant sIL-6R variants was determined using the Cell Titer Blue Cell viability assay reagent (Promega, Karlsruhe, Germany), following the manufacturer’s protocol as described previously. Values were measured in triplicates per experiment, and relative light units (RLU) obtained after 60 min were normalized by subtraction of control values obtained after 0 min. The maximum proliferation was set to 100%, and all other values were calculated accordingly.
Supplementary file pbio.2000080.s004.tif: S4 Fig Mutation of Val-356 is sufficient to block ADAM10-mediated proteolysis of the IL-6R and the Asp358Ala variant. (A) HEK293 cells were transiently transfected with Expression plasmids encoding the wildtype IL-6R (PV) or the double mutants (IE, DG) as indicated. Cells were either treated with 1 μM ionomycin for 1 h or DMSO as vehicle control. sIL-6R was precipitated from the supernatant with concanavalin A-covered Sepharose beads, and cells were lysed. Both were analyzed via Western blot, and β-actin served as loading control. One out of three experiments with similar outcome is shown. (B, C) The experiment was performed as described under (A), but sIL-6R generation was analyzed via ELISA. In (B), the amount of sIL-6R generated after ionomycin-stimulation of the wildtype IL-6R (PV) was set to 100%, and all other values were calculated accordingly. In (C), the amount of sIL-6R without stimulation was considered as constitutive shedding and set to 1 and the increase of sIL-6R was calculated. Data shown are the mean ± SD from at least three independent experiments (*p<0.05, ns = no significant difference). (D-F) HEK293 cells were transiently transfected with expression plasmids encoding the wildtype IL-6R (PV) or the single mutants (DV, IV, PE, PG) as indicated. The experiments were performed as described in (A) to (C). (G) ADAM10-mediated proteolysis of the IL-6R variants depicted in Fig 4I was analyzed as described in (B). (H) Equal numbers of Ba/F3-gp130-IL-6R_DG cells were incubated for 48 h with increasing amounts (0–100 ng/ml) of either IL-6 or Hyper-IL-6. One representative experiment out of three performed is shown (mean ± SD, biological triplicates). (TIF) Click here for additional data file.

[5] = tested on: Ba/F3-gp130-hIL-6R 2N cells; test: Proliferation in response to IL-6 or Hyper-IL-6 (S6B Fig); format: cell-based; details: highest value = 100, mean of n = 3
Excerpt: (§4) In order to analyze a functional role for the determined glycans, we created IL-6R mutants that lacked either one, multiple, or all N-glycosylation sites and stably transduced Ba/F3-gp130 cells with these. […] When we analyzed IL-6-dependent proliferation of the individual cell lines, we could not detect a difference between the wild-type IL-6R (Fig 4K), IL-6R mutants lacking one of the five N-glycosylation sites (Fig 6A–6E), IL-6R mutants lacking two (termed 2N), three (3N), or four N-glycosylation sites (4N, S6B–S6D Fig), or the IL-6R mutant that lacked all five N-glycans (5N, Fig 6F). Similarly, mutation of the O-glycosylation site on Thr-352 had no influence on IL-6 signaling (Fig 6G).
as §3
(§5) Supplementary file pbio.2000080.s006.tif: S6 Fig Cell-surface expression and signaling capacity of different N-glycan mutants. (A) Cell-surface expression of the IL-6R on the individual Ba/F3-gp130-IL-6R cell lines. The stably transduced IL-6R mutant is indicated above the histogram. Staining is shown in color, whereas the control staining is shown in gray. One out of three experiments with similar outcome is shown. (B-D) Equal numbers of cells of the indicated Ba/F3-gp130-hIL-6R cell line were incubated for 48 h with increasing amounts (0–100 ng/ml) of either IL-6 or Hyper-IL-6. One representative experiment out of three performed is shown (mean ± SD, biological triplicates). (TIF) Click here for additional data file.

[6] = tested on: Ba/F3-gp130-hIL-6R 3N cells; test: Proliferation in response to IL-6 or Hyper-IL-6 (S6C Fig); format: cell-based; details: highest value = 100, mean of n = 3
Excerpt: as §4, §3, §5

[7] = tested on: Ba/F3-gp130-hIL-6R-4N cells; test: Proliferation in response to IL-6 or Hyper-IL-6 (S6D Fig); format: cell-based; details: highest value = 100, mean of n = 3
Excerpt: as §4, §3, §5

ADAM17 = tested on: T2, ADAM17; test: In vitro cleavage assay of IL-6R (glyco)peptides with recombinant ADAM17; details: human, isolated enzyme, pH 9
T2 construct: catalytic domain (aa Pro-18 to Val-477) of ADAM17; purchased Enzo Life Sciences GmbH (Lörrach, Germany)
Protocol: as §1, §2

Compound: CC[C@H](C)[C@H](NC(=O)[C@@H](N)CC(N)=O)C(=O)N[C@@H](CC(C)C)C(=O)N[C@@H](Cc1ccccc1)C(=O)N[C@@H](CCCNC(=N)N)C(=O)N[C@@H](CC(=O)O)C(=O)N[C@@H](CO)C(=O)N[C@@H](C)C(=O)N[C@@H](CC(=O)N[C@@H]1O[C@H](CO)[C@@H](O[C@@H]2O[C@H](CO)[C@@H](O[C@@H]3O[C@H](CO[C@H]4O[C@H](CO)[C@@H](O)[C@H](O)[C@@H]4O[C@@H]4O[C@H](CO)[C@@H](O[C@@H]5O[C@H](CO)[C@H](O)[C@H](O)[C@H]5O)[C@H](O)[C@H]4NC(C)=O)[C@@H](O)[C@H](O[C@H]4O[C@H](CO)[C@@H](O)[C@H](O)[C@@H]4O[C@@H]4O[C@H](CO)[C@@H](O[C@@H]5O[C@H](CO)[C@H](O)[C@H](O)[C@H]5O)[C@H](O)[C@H]4NC(C)=O)[C@@H]3O)[C@H](O)[C@H]2NC(C)=O)[C@H](O)[C@H]1NC(C)=O)C(=O)N[C@@H](C)C(=O)N[C@H](C(=O)N[C@@H](CO)C(=O)N[C@@H](CC(C)C)C(=O)N1CCC[C@H]1C(=O)N[C@H](C(=O)N[C@@H](CCC(N)=O)C(=O)N[C@@H](CC(=O)O)C(=O)N[C@@H](CO)C(=O)N[C@@H](CO)C(=O)N[C@@H](CO)C(=O)N[C@H](C(=O)N1CCC[C@H]1C(=O)N[C@@H](CC(C)C)C(=O)N1CCC[C@H]1C(=O)O)C(C)C)C(C)C)[C@@H](C)O [5(QD)] (H-NILFRDSAD(X1)ATSLPVQDSSSVPLP-OH; N-terminus and C-terminus assumed)
remaining at 16 h [1]: 102%
cleavage by recombinant ADAM17, in words [2]: blocked cleavage

Compound: NILFRDSANATSLPVQDSSSVPLP [9(QD)]
not cleaved [3]: cleavage blocked; mean 95.585% intact after 16 h

Compound: NILFRDSANATSLPVQDSSSVPLP [5(QD)]
not cleaved [3]: cleavage blocked; mean 101.852% intact after 16 h

not cleaved [3]: 91.4% ± 9.4% intact after 16 h
Compound: NILFRDSANATSLPVQDSSSVPLP [3(QD)]

Compound: IL-6: recombinant human interleukin-6
proliferation, Figure S4H, mean ([4]; cytokine 0.001 ng/ml): 4.604
proliferation, Figure S4H, mean ([4]; cytokine 0.01 ng/ml): 11.7535
proliferation, Figure S4H, mean ([4]; cytokine 0.1 ng/ml): 45.6464
proliferation, Figure S4H, mean ([4]; cytokine 1 ng/ml): 77.0141
proliferation, Figure S4H, mean ([4]; cytokine 10 ng/ml): 92.624
proliferation, Figure S4H, mean ([4]; cytokine 100 ng/ml): 70.8452
proliferation, Figure S6B, mean ([5]; cytokine 0.001 ng/ml): 10.1623
proliferation, Figure S6B, mean ([5]; cytokine 0.01 ng/ml): 21.276
proliferation, Figure S6B, mean ([5]; cytokine 0.1 ng/ml): 41.189
proliferation, Figure S6B, mean ([5]; cytokine 1 ng/ml): 78.0666
proliferation, Figure S6B, mean ([5]; cytokine 10 ng/ml): 86.7819
proliferation, Figure S6B, mean ([5]; cytokine 100 ng/ml): 79.1326
proliferation, Figure S6C, mean ([6]; cytokine 0.001 ng/ml): 8.138
proliferation, Figure S6C, mean ([6]; cytokine 0.01 ng/ml): 15.3684
proliferation, Figure S6C, mean ([6]; cytokine 0.1 ng/ml): 39.4534
proliferation, Figure S6C, mean ([6]; cytokine 1 ng/ml): 92.5489
proliferation, Figure S6C, mean ([6]; cytokine 10 ng/ml): 89.1651
proliferation, Figure S6C, mean ([6]; cytokine 100 ng/ml): 87.3482
proliferation, Figure S6D, mean ([7]; cytokine 0.001 ng/ml): 7.259
proliferation, Figure S6D, mean ([7]; cytokine 0.01 ng/ml): 22.724
proliferation, Figure S6D, mean ([7]; cytokine 0.1 ng/ml): 61.9479
proliferation, Figure S6D, mean ([7]; cytokine 1 ng/ml): 88.3209
proliferation, Figure S6D, mean ([7]; cytokine 10 ng/ml): 84.8559
proliferation, Figure S6D, mean ([7]; cytokine 100 ng/ml): 63.7775

not cleaved [3]: 91% ± 8% after 16 h
Compound: NILFRDSANATSLPVQDSSSVPLP [7(QD)]

remaining at 16 h, 50 μM (ADAM17): 10.8%
Compound: CC[C@H](C)[C@H](NC(=O)[C@@H](N)CC(N)=O)C(=O)N[C@@H](CC(C)C)C(=O)N[C@@H](Cc1ccccc1)C(=O)N[C@@H](CCCNC(=N)N)C(=O)N[C@@H](CC(=O)O)C(=O)N[C@@H](CO)C(=O)N[C@@H](C)C(=O)N[C@@H](CC(N)=O)C(=O)N[C@@H](C)C(=O)N[C@H](C(=O)N[C@@H](CO)C(=O)N[C@@H](CC(C)C)C(=O)N1CCC[C@H]1C(=O)N[C@H](C(=O)N[C@@H](CCC(N)=O)C(=O)N[C@@H](C)C(=O)N[C@@H](CO)C(=O)N[C@@H](CO)C(=O)N[C@@H](CO)C(=O)N[C@H](C(=O)N1CCC[C@H]1C(=O)N[C@@H](CC(C)C)C(=O)N1CCC[C@H]1C(=O)O)C(C)C)C(C)C)[C@@H](C)O[C@H]1O[C@H](CO)[C@H](O)[C@H](O)[C@H]1NC(C)=O [8(QA)] (H-NILFRDSANAT(αGalNAc)SLPVQASSSVPLP-OH)
